In one series the target is T1, Gadd45β/MKK7 interaction (Homo sapiens, UniProt O14733).
T1 construct: The GST-fused full-length kinase was coated for 16 h at 4° C., at a concentration of 42 nM; made in house
T1 sequence (O14733 1-419): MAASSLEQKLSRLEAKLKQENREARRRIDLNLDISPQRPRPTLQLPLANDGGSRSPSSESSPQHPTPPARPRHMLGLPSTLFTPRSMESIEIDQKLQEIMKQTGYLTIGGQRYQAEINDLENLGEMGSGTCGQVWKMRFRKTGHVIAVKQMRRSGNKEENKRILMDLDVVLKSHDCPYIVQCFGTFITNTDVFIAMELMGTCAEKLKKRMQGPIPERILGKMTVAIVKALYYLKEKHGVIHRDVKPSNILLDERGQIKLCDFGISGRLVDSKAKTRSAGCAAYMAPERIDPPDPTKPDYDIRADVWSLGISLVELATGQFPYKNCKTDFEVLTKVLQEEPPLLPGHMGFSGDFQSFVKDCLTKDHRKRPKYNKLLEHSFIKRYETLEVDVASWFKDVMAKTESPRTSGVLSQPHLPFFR
Description: ELISA competition assay after 48-hr pre-incubation with human serum at 37° C. The conditions noted are these: for stability after pre-incubation with human serum: result in words. The class given is binding. As to the method:
In FIG. 4, Gadd45β/MKK7 binding, competition ELISA assays were carried out to determine the stability of Z-conjugated D-tetrapeptides in human serum. […] ELISA were performed as described in FIG. 3 C. Briefly, 100 μl of 42 nM of recombinant GST-MKK7 in ELISA buffer (25 mM Tris pH 7.5, 150 mM NaCl, 1 mM DTT, 1 mM EDTA) were coated onto wells of 96-well plates by overnight incubation at 4° C. After blocking with 2% of NFDM for 1 hr at 37° C., plates were washed with TPBS, and then 21 nM of recombinant, biotinylated human (h)Gadd45β were added to the wells together with increasing concentrations of tetrapeptides which had either been subjected or had not been subjected to pre-incubation with human serum, as indicated. For a further discussion of the conditions used for the competition ELISA assay, the reader is directed to Tornatore et al 2008 JMB, 378: 97-111 and the references therein.

Series [1] concerns U266, KMS-11, NCI-H929, ARH-77, JJN-3, KMS-12, KMS-18, KMS-27 cells. Description: [3H]thymidine incorporation assay, panel of 8 sensitive multiple myeloma cell lines. The class given is cell-based, human. Conditions: treatment for 144 hrs; read-out: IC50s ranging over the sensitive multiple myeloma cell lines. As to the method: Cultures of multiple myeloma cells and treatments with Z-DTPs were carried out as described in Example 8 (see below). The effects of Z-DTPs on the survival/proliferation of multiple myeloma cells were evaluated by the use of [^3H]thymidine) incorporation assays, performed as also described in Example 8. The amount of cell proliferation measured with each of the Z-DTPs' concentrations used and with the untreated cultures (i.e. cultures incubated with medium alone), was expressed as counts per minute (c.p.m.)—which directly correlate with the extent of cell proliferation. All experiments were performed in triplicate.
Background: Dividing cells build labelled thymidine or BrdU into new DNA.

The next series deals with T2, MKK7 (Homo sapiens, UniProt O14733).
T2 construct: expressed in transfected cells; host or cells: HEK-293
T2 sequence (O14733 1-419): T1 sequence (O14733 1-419)
Description: MKK7 kinase assay in the absence of Gadd45β. Conditions: 1 nM or 5 nM peptide. The class given is biochemical. As for the experimental part:
In FIG. 6, transient transfection of pcDNA-FLAG-MKK7 in HEK-293 cells was performed using the method of Ca3(PO4)2 precipitation, essentially as described in Papa, S et al., (2004) Nat. Cell Biol. 6, 146-153 and references therein. 36 hrs after transfection, the cells were treated with 100 ng/ml phorbol 12-myristate 13-acetate (PMA) and 1 μM ionomycin for 30 min at 37° C. Cell extracts were prepared as described in example 4 and used for immunoprecipitation with anti-FLAG antibodies (binding to FLAG-MKK7) as described in Papa, S et al., (2004) Nat. Cell Biol. 6, 146-153 and references therein. Briefly, 50 μg of cell lysate from PMA-ionomycin (P/D-treated or untreated, HEK-293 cells transiently expressing FLAG-MKK7 was incubated with 10 μl of anti-FLAG M2 Affinity Gel (SIGMA) for 4 hrs at 4° C. during rotation. The immunoprecipitates were then washed 3 times in lysis buffer and twice more in kinase buffer (10 mM HEPES, 5 mM MgCl2, 1 mM MnCl2,12.5 mM β-glycerophosphate, 2 mM DTT, 4 mM NaF and 0.1 mM Na3VO4). MKK7 catalytic activity was finally measured in kinase assays by incubating FLAG-MKK7 immunoprecipitates at 30° C. for 20 min with 20 μl of kinase buffer containing 2 μM of recombinant GST-JNK1 and 5 μCi of [γ-^32P]ATP) (kinase reaction), as described in Papa, S et a., (2004) Nat. Cell Biol. 6, 146-153 and references therein. […]

Structures are written as SMILES. Square brackets hold non-standard residues; d marks the D form. Peptide text beside a SMILES is read from it. * marks the point of attachment. Cbz = O=C(OCc1ccccc1)*

Take `NC(=O)[C@@H](Cc1ccccc1)NC(=O)[C@@H](Cc1c[nH]cn1)NC(=O)[C@@H](CC(=O)O)NC(=O)[C@@H](Cc1ccc(O)cc1)NC(=O)OCc1ccccc1` [Compound 1, Z-Tyr-Asp-His-Phe-NH2] (Cbz-[dY][dD][dH][dF]-NH2): the IC50 is 0.19 nM on Gadd45β/MKK7 interaction and 10.1 to 4900 nM in series [1]. Besides, the “stability after pre-incubation with human serum” value at Gadd45β/MKK7 interaction is “completely stable”.
On to `CC(=O)N[C@H](Cc1ccc(O)cc1)C(=O)N[C@H](CC(=O)O)C(=O)N[C@H](Cc1c[nH]cn1)C(=O)N[C@H](Cc1ccccc1)C(N)=O` [DTP1, Acetyl-(D-Tyr)-(D-Asp)-(D-His)-(D-Phe)-NH2] (Ac-[dY][dD][dH][dF]-NH2), for which the “inhibition of MKK7 catalytic activity in the absence of Gadd45β” value against MKK7 was “nor the active tetrapeptides, DTP1 and DTP2, afforded any inhibition”.
Same read-out and setting: next, `CC(=O)N[C@H](Cc1ccc(O)cc1)C(=O)N[C@H](CCC(=O)O)C(=O)N[C@H](CCCNC(=N)N)C(=O)N[C@H](Cc1ccccc1)C(N)=O` [DTP2, Acetyl-(D-Tyr)-(D-Glu)-(D-Arg)-(D-Phe)-NH2] (Ac-[dY][dE][dR][dF]-NH2): “nor the active tetrapeptides, DTP1 and DTP2, afforded any inhibition”.
`N=C(N)NCCC[C@@H](NC(=O)[C@@H](CCC(=O)O)NC(=O)[C@@H](Cc1ccc(O)cc1)NC(=O)OCc1ccccc1)C(=O)N[C@H](Cc1ccccc1)C(N)=O` [Compound 9, Z-D-Tyr-D-Glu-D-Arg-D-Phe-NH2] (Cbz-[dY][dE][dR][dF]-NH2): on Gadd45β/MKK7 interaction, the IC50 was 0.18 nM and the “stability after pre-incubation with human serum” value is “completely stable”.

For the origin of these results see patent US8993717B2, “Gadd45beta targeting agents” (Imperial Innovations Limited, priority 2009, dated 2015).
